Reference: US7166597B2, “Fused pyrazole derivatives being protein kinase inhibitors” (Glaxo Group Limited, priority 2000, dated 2007)
Read-outs that look alike come from different tables or passages of the source.

Tests used:
[1] = Cell Based Efficacy (MTT Assay), cytotoxicity toward HFF; conditions: human, HFF cells (human foreskin fibroblasts), Table 7, HFF cell line
Method: Cell Based Efficacy (MTT Assay)
The potency of compounds of the invention are tested for their ability to inhibit cell proliferation and cell viability. The metabolic conversion of 3-(4,5-dimethylthiazol-2-yl)-2,5-diphenyltetrazolium bromide (MTT, Sigma #M2128) to a reduced form was a commonly used measure of cellular viability. Following was the procedure:
Cells are maintained in 75 cm^2 tissue culture flasks until ready for use. The cells are grown and plated for the assay in Dulbecco's modified Eagle's media containing 10% fetal bovine serum. For example, the following cell lines can be used: a) human foreskin fibroblasts (HFF), b) HT29 (human colon carcinoma cell line), c) MDA-MB468 (human breast carcinoma cell line), d) RKO (human colon adenocarcinoma cell line), e) SW620 (human colon carcinoma cell line), f) A549 (human lung carcinoma cell line), and g) MIA PACA (human pancreatic carcinoma cell line). Cells are maintained at 37° C. in 10% CO2, 90% humidified air. Cells are plated in 96-well tissue culture plates at the densities listed below (Table 6). 100 μL of cell suspension was added to each well of the 96-well plate except the top row of the plate which contains no cells and serves as a reference for the spectrophotometer.
Cells are incubated overnight in Dulbecco's modified Eagle's media containing 10% fetal bovine serum at 37° C. in 10% CO2, 90% humidified air prior to dosing. Cells are dosed in 10 sequential 3-fold dilutions starting at 30 μM depending upon the solubility of the compound. Compounds with solubilities of less than 30 μM are dosed at the highest soluble concentration. Stock solutions of compounds are made in 100% dimethyl sulfoxide (DMSO). Stock solutions are diluted in Dulbecco's modified Eagle's media containing 100 ug/mL gentamicin and 0.3 to 0.6% DMSO at the twice the highest concentration to be placed on the cells. If compounds have been dissolved in DMSO the final concentration of DMSO on the cells was kept below 0.3%. 3-fold serial dilutions are performed on each compound to prepare 10 concentrations of the compound for dosing. 100 μL of diluted compound was added to the 100 μL of media currently on the dish. For each concentration of compound, 2–4 replicate wells are prepared.
Cells are returned to incubator and allowed to proliferate in the presence of compound for 72 h before addition of MTT. MTT was prepared in phosphate buffered saline (Irvine Scientific #9240) at a concentration of 2 mg/mL. 50 μL per well of MTT solution was added to the 200 μL of media to yield a final concentration of 0.4 mg/mL and plates are returned to the incubator for 4 h. After 4 h incubation the media, compound and MTT mixture was aspirated from the plates and 100 μL of 100% DMSO was added to each well in addition to 25 uL of Sorenson's Buffer (0.1M glycine, 0.1M NaCl, pH 10.5). Quantitation of metabolic reduction of MTT in each plate was performed by reading optical density at 570 nm wavelength on a Molecular Devices UV max microplate reader. Growth inhibition curves and 50% inhibitory concentrations are determined using Microsoft Excel.

[2] = test system: TNF release from human peripheral blood mononuclear cells (PBMNC); assay: Cell Based Assay for Cytokines Production in PBMNC (TNF release after LPS); conditions: PBMC, read-out: TNF/PBMNC (inhibition of TNF release from human PBMNC following stimulation with LPS, IC50)
Method: Cell Based Assay for Cytokines Production in PBMNC
Human peripheral blood mononuclear cells were isolated from heparinized blood by LSM (Organon Teknika) from volunteer donors. Purified human peripheral blood mononuclear cells were then suspended at a concentration of 2×10^6 cells/ml in RPMI 1640 medium supplemented with 10% heat-inactivated FBS and 1% antibiotics. Aliquots of 100 μl (2×10^5 cells) were added to 96-well microliter plates. Test compounds at […] dose ranges (final-DMSO concentration in culture medium was 0.1%) were then added to the cells for 10–15 minutes before the addition of lipopolysaccharide (1 ng/ml). After incubation at 37° C. in a 5% CO2 incubator for 18–20 h, cell free supernatants were collected by centrifugation at 800 g. The supernatant was then assayed for the amount of TNFα and IL-1β by using Quantikine immunoassay kits developed by R&D Systems (Minneapolis, Minn.).

[3] = test system: serum TNFα elevation in mice treated with lipopolysaccharide (LPS); assay: Murine LPS-Stimulated Serum TNF Inhibition; format: in vivo; conditions: Mus musculus, 1.5 h, dose 30 mpk, read-out: % inh. (dose): % inhibition of murine TNF production in mice following an LPS challenge
Method: Murine LPS—Stimulated Serum TNF Inhibition Protocol
The potency of compounds of the invention as inhibitors of serum TNFα elevation in mice treated with lipopolysaccharide (LPS) was determined as follows; a) for subcutaneous (s.c.) administration, test compound was dissolved in DMSO and added to a mixture of 0.9% sodium chloride solution and 30% Trappsol HPB-20 (Cyclodextrin Technology Development Inc., Gainesville, Fla. USA) for a final DMSO concentration of 1%. The dosing solution was sonicated briefly and 0.2 mL was injected subcutaneously 10 min prior to LPS injection; b) for per oral (p.o.) administration, test compounds were formulated in 0.2 mL of PBS and 0.1% Tween 80 and given orally via gavage 10 min prior to LPS administration.
C3/hen female mice were injected intraperitoneally with 200 μg/kg LPS (Escherichia coil, Serotype 0111:B4, Sigma Chemical Co, St. Louis, Mo.) in PBS and sacrificed 90 min later by CO2 asphyxiation. Blood was immediately taken from the caudal vena cava and plasma prepared and frozen at −80° C. Plasma concentrations of TNF were measured by ELISA (Genzyme Co., Cambridge Mass.).

p38 kinase = biological target: T1, p38 kinase (Homo sapiens, UniProt Q16539); assay: p38 Kinase Assay; format: biochemical
T1 construct: GST (N); made in house; host or cells: E. coli
Method: The peptide substrate used in the p38 assay was biotin-IPTSPITTTYFFFRRR-amide. The p38 and MEK6 proteins were purified to homogeneity from E. coli expression systems. The fusion proteins were tagged at the N-terminus with Glutathione-S-Transferase (GST). The maximum activation was achieved by incubating 20 uL of a reaction mixture of 30 nM MEK6 protein and 120 nM p38 protein in the presence of 1.5 uM peptide and 10 mM Mg (CH3CO2)2 in 100 mM HEPES7 pH 7.5, added to 15 uL of a mixture of 1.5 uM ATP with 0.08 uCi [g-^33P]ATP, with or without 15 uL of inhibitor in 6% DMSO. The controls were reactions in the presence (negative controls) or absence (positive controls) of 50 mM EDTA. Reactions were allowed to proceed for 60 min at room temperature and quenched with addition of 50 uL of 250 mM EDTA and mixed with 150 uL of Streptavidin SPA beads (Amersham) to 0.5 mg/reaction. The Dynatech Microfluor white U-bottom plates were sealed and the beads were allowed to settle overnight. The plates were counted in a Packard TopCount for 60 seconds. IC50 values were obtained by fitting raw data to % I=100*(1−(I−C2)/(C1−C2)), where I was […], C1 was positive control, and C2 was negative control.

[4] = biological target: T2, JNK3 kinase (Jnk-3alpha-2) (Homo sapiens, UniProt P53779); assay: JNK3 Kinase Assay; format: biochemical; conditions: Table 8; read-out: JNK3 kinase (inhibition of JNK3 kinase, IC50)
T2 construct: Jnk-3alpha-2 (as a truncated construct, residues 39 to 224) was expressed in E. coli as a GST fusion protein; Following purification the GST portion was removed by thrombin cleavage; fused on or other part: An N-terminal GST tag was used for expression and removed by thrombin cleavage before the assay
Method: JNK3 Kinase Assay Jnk-3alpha-2 (as a truncated construct, residues 39 to 224) was expressed in E. coli as a GST fusion protein. Following purification the GST portion was removed by thrombin cleavage. The enzyme was stored at −80° C. Substrate c-Jun was expressed as a GST fusion protein including a signal peptide (biotinylation site) in E. coli. Following purification the substrate was biotinylated on a specific lysine in the signal peptide using biotin ligase. Prior to assay Jnk-3 was pre-activated by incubation with MgATP. The enzyme (10 nM) was screened in 40 mM HEPES (pH 7.4), 150 mM NaCl, 20 mM glycerophosphate, 1 mM DTT, 0.2 mM vanadate, 200 nM biotin-c-Jun, 5 mM MgCl2 and 10 uM ATP. Inhibitors were added over a conc range of from 0 to 10 uM in DMSO (fc 3%). The reaction was stopped by the addition of 25 mM EDTA. Phospho-c-Jun was detected using homogeneous time resolved fluorescence (HTRF) with a Eu-labelled antiphosphoserine (Serine 73) and streptavidin APC.

[5] = Table 7, compounds wherein Z is CH, read-out: P38 kinase (inhibition of p38 kinase, IC50)
[6] = Table 8, compounds wherein Z is N, read-out: p38 kinase (inhibition of p38 kinase, IC50)

T2 sequence (P53779 39-402 limits assumed): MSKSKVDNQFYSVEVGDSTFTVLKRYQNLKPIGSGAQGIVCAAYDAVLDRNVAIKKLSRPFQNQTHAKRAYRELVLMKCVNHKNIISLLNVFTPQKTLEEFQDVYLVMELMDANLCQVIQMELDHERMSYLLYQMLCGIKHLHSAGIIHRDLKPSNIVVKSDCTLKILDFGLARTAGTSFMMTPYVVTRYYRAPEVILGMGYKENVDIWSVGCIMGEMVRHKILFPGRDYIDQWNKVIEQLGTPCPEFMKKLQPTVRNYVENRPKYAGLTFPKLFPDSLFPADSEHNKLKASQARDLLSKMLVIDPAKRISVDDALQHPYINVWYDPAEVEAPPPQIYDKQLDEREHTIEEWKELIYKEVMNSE
T1 sequence (Q16539 whole entry): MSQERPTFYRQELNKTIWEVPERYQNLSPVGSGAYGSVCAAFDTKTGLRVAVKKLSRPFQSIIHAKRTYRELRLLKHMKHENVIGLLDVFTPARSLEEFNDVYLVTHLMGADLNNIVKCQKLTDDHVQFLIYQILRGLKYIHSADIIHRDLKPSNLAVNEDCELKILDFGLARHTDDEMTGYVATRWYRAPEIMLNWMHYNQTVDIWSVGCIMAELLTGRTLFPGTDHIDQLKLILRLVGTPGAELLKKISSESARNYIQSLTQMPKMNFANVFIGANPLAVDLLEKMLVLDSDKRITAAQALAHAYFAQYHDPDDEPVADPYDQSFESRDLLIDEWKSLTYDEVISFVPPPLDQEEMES

| Structure (SMILES) | IC50 at 72 h [1] | IC50 ([2]; Table 7, LPS stimulation) | inhibition in vivo at 30 mg/kg ([3]; Table 7, LPS challenge) | IC50 (p38 kinase; [5]) | IC50 ([2]; Table 8, LPS stimulation) | inhibition in vivo at 30 mg/kg ([3]; Table 8, LPS challenge) | IC50 (p38 kinase; [6]) | IC50 [4] |
| --- | --- | --- | --- | --- | --- | --- | --- | --- |
| Fc1ccc(-c2nn3ccccc3c2-c2ccncc2)cc1 [Example 1, 2-(4-Fluorophenyl)-3-(4-pyridyl)-pyrazolo[1,5-a]pyridine] | > 50000 nM | < 500 nM | 65% | < 500 nM | – | – | – | – |
| COc1ccn2nc(-c3ccc(F)cc3)c(-c3ccncc3)c2c1 [Example 5, 2-(4-Fluorophenyl)-5-methoxy-3-(4-pyridinyl)pyrazolo[1,5-a]pyridine] | – | 500 to 5000 nM | 11% | 500 to 5000 nM | – | – | – | – |
| Nc1ncccc1C(=O)OCc1ccn2nc(-c3ccc(F)cc3)c(-c3ccncc3)c2c1 [Example 16, [2-(4-Fluorophenyl)-3-(4-pyridinyl)pyrazolo[1,5-a]pyridin-5-yl]methyl 2-aminonicotinate] | > 50000 nM | < 500 nM | – | < 500 nM | – | – | – | – |
| Fc1ccc(-c2nn3ccccc3c2-c2ccnc(NCc3ccc(Cl)cc3)c2)cc1 [Example 31, N-(4-Chlorobenzyl)-4-[2-(4-fluorophenyl)pyrazolo[1,5-a]pyridin-3-yl]-2-pyridinamine] | – | < 500 nM | 42% | – | – | – | – | – |
| Fc1ccc(-c2nn3ccccc3c2-c2ccnc(NCc3cccnc3)c2)cc1 [Example 37, 4-[2-(4-Fluorophenyl)pyrazolo[1,5-a]pyridin-3-yl]-N-(3-pyridinylmethyl)-2-pyridinamine] | 5000 to 50000 nM | < 500 nM | – | < 500 nM | – | – | – | – |
| CSc1nccc(-c2c(-c3ccc(F)cc3)nn3ccccc23)n1 [Example 57, 2-(4-Fluorophenyl)-3-(4-(2-methylthio)pyrimidinyl)pyrazolo[1,5-a]-pyridine] | – | – | – | – | < 500 nM | 56% | < 500 nM | – |
| CCCCNc1nccc(-c2c(-c3ccc(F)cc3)nn3ccccc23)n1 [Example 60, N-Butyl-4-[2-(4-fluorophenyl)pyrazolo[1,5-a]pyridin-3-yl]-2-pyrimidin-amine] | – | – | – | – | < 500 nM | 88% | < 500 nM | – |
| Nc1nccc(-c2c(-c3ccc(F)cc3)nn3ccccc23)n1 [Example 64, 4-[2-(4-Fluorophenyl)pyrazolo[1,5-a]pyridin-3-yl]-2-pyrimidinamine] | – | – | – | – | < 500 nM | 62% | < 500 nM | – |
| Fc1ccc(-c2nn3cc(C(F)(F)F)ccc3c2-c2ccnc(NC3CC3)n2)cc1 [Example 68, N-Cyclopropyl-4-[2-(4-fluorophenyl)-6-trifluoromethylpyrazolo[1,5-a]pyridin-3-yl]-2-pyrimidinamine] | – | – | – | – | < 500 nM | 24% | < 500 nM | < 500 nM |
| CC(C)Nc1nccc(-c2c(-c3ccc(F)cc3)nn3cc(C(F)(F)F)ccc23)n1 [Example 69, 4-[2-(4-Fluorophenyl)-6-trifluoromethylpyrazolo[1,5-a]pyridin-3-yl]-N-(2-propyl)-2-pyrimidinamine] | – | – | – | – | < 500 nM | 45% | < 500 nM | – |
| N#Cc1ccc2c(-c3ccnc(NC4CC4)n3)c(-c3ccc(F)cc3)nn2c1 [Example 73, N-Cyclopropyl-4-[6-cyano-2-(4-fluorophenyl)pyrazolo[1,5-a]pyridin-3-yl]-2-pyrimidinamine] | – | – | – | – | < 500 nM | 52% | < 500 nM | < 500 nM |
| NC(=O)c1ccc2c(-c3ccnc(NC4CC4)n3)c(-c3ccc(F)cc3)nn2c1 [Example 75, 2-(4-Fluorophenyl)-3-(4-(2-cyclopropylamino)pyrimidinyl)-6-pyrazolo-[1,5-a]pyridinylcarboxamide] | – | – | – | – | < 500 nM | 90% | – | < 500 nM |
| Fc1ccc(-c2nn3ccccc3c2-c2ccnc(NCc3ccccn3)n2)cc1 [Example 82, 4-[2-(4-Fluorophenyl)pyrazolo[1,5-a]pyridin-3-yl]-N-(2-pyridinylmethyl)-2-pyrimidinamine] | – | – | – | – | < 500 nM | 87% | < 500 nM | – |
